The term half-life denotes how long it takes for the measured level to halve.

The source of these data is ChEMBL document CHEMBL1155946, “Design, synthesis and biological evaluation of glutathione peptidomimetics as components of anti-Parkinson prodrugs” (J Med Chem, 2008).

Data set [1] can be described thus: Metabolic stability in rat plasma at 37 degC. Format: ADME, cell-free.
Data set [2] relates to MDCK. The experiment in a line: Inhibition of [3H]glutathione uptake at glutathione transporter in MDCK cells at 10 nM to 1000 nM by HPLC. It is filed as cell-based. The note with it: Canis lupus familiaris.
Data set [3] can be described thus: Stability in buffer solution at pH 7.2.
Data set [4] can be described thus: Metabolic stability in rat brain at 37 degC. Format: ADME, tissue-based.

The source made the active and inactive calls. The calls are words filed in the database; no cut-off is given here.

Take `N[C@@H](CNC(=O)N[C@@H](CSSCC(=O)C(=O)NCCc1ccc(O)c(O)c1)C(=O)NCC(=O)O)C(=O)O`: the half-life in data set [1] was 3 h; in data set [3] it was over 12 h; in data set [4], 6 h. Also, the result in data set [2] was Active.
Take `N[C@@H](CNC(=O)N[C@@H](CSSCC(=O)C(=O)NC12CC3CC(CC(C3)C1)C2)C(=O)NCC(=O)O)C(=O)O`: in data set [2], the result was Active.
